This note sets out measurements from ChEMBL document CHEMBL3414474, “Design and synthesis of piperidine derivatives as novel human heat shock protein 70 inhibitors for the treatment of drug-resistant tumors” (Eur J Med Chem, 2015).

Experiment [1] is described as follows: Growth inhibition of human BT/LapR1.0 cells at 5 uM incubated for 72 hrs by ATP detection based luminescent assay. Conditions: read-out: GI. The experiment is classed as functional.
The subject of experiment [2] is MDA-MB-453. Kind of experiment: Growth inhibition of human MDA-MB-453 cells at 5 uM incubated for 72 hrs by ATP detection based luminescent assay. The experiment is classed as functional. Conditions: MDA-MB-453, 72 h, read-out: GI.
Experiment [3] in a line: Growth inhibition of human BT474 cells at 5 uM incubated for 72 hrs by ATP detection based luminescent assay. The experiment is classed as functional. The conditions noted are these: BT-474, 72 h, read-out: GI.
Experiment [4] is described as follows: Growth inhibition of human SKBR3 cells at 5 uM incubated for 72 hrs by ATP detection based luminescent assay. The experiment is classed as functional. Conditions: SK-BR-3, 72 h, read-out: GI.
For experiment [5], the system named is MDA-MB-361. The experiment in a line: Growth inhibition of human MDA-MB-361 cells at 5 uM incubated for 72 hrs by ATP detection based luminescent assay. The experiment is classed as functional. Conditions: MDA-MB-361, 72 h, read-out: GI.
The nature of experiment [6]: Growth inhibition of human SK/LapR1.0 cells at 5 uM incubated for 72 hrs by ATP detection based luminescent assay. The experiment is classed as functional. Conditions: read-out: GI.
For experiment [7], the species on record is Homo sapiens. The experiment in a line: Inhibition of HSP70 (unknown origin) at 200 uM pre-incubated for 30 mins followed by ATP addiction and measured after 3 hrs by malachite green reagent based colorimetric assay.

On to `Cc1ccccc1CN(C)C1CCN(Cc2cnc(Cl)s2)CC1`, for which the inhibition of growth at 5 µM in experiment [1] was 4%; in experiment [2] it was 3.5%; in experiment [3], 1.5%; in experiment [4], 9.7%; in experiment [5], 4.4%; in experiment [6] it was 5.1%.
As to `CCOc1ncc(CN2CCC(N(C)Cc3ccc(Cl)cc3Cl)CC2)s1`, the inhibition (in general, the relative decrease from the control value, in per cent) in experiment [7] is 4.5%. Also, the inhibition of growth at 5 µM in experiment [6] was found to be 12%.
On to `CSc1nccc(N2CCC(N(C)Cc3cc(Cl)ccc3Cl)CC2)n1`, for which the inhibition of growth at 5 µM was 56.9% in experiment [1]; 69.3% in experiment [2]; 61% in experiment [3]; 19.3% in experiment [4]; 45.7% in experiment [5]; 29.4% in experiment [6].
Regarding `CN(Cc1c(F)cccc1Cl)C1CCN(Cc2cnc(Cl)s2)CC1`, the inhibition of growth at 5 µM in experiment [1] turned out to be 3.2%; in experiment [4] it was 9.8%; in experiment [6], 1.5%.
In the case of `CSc1nccc(N2CCC(N(C)Cc3ccc(C)cc3)CC2)n1`, the inhibition of growth at 5 µM turned out to be 65.8% in experiment [1]; 66.6% in experiment [2]; 69.2% in experiment [3]; 38.9% in experiment [4]; 55.7% in experiment [5]; 42% in experiment [6].
For `CN(Cc1ccc(F)cc1)C1CCN(Cc2cnc(Cl)s2)CC1`, the inhibition of growth at 5 µM in experiment [1] was 9%; in experiment [2] it was 11%; in experiment [3], 7.1%; in experiment [5], -1.3%; in experiment [6] it was -0.1%.
`CCOc1ncc(CN2CCC(N(C)Cc3cc(Cl)ccc3Cl)CC2)s1`: the inhibition of growth at 5 µM was found to be 9.6% in experiment [1], 5.6% in experiment [3], 9.4% in experiment [4] and 5.2% in experiment [6].
As to `COc1cc(N2CCC(N(C)Cc3ccccc3Cl)CC2)ncn1`, in experiment [6], the inhibition of growth at 5 µM came out at 29%.
With `CSc1ncc(CN2CCC(N(C)Cc3c(F)cccc3Cl)CC2)s1`, the inhibition of growth at 5 µM in experiment [1] was 59.9%; in experiment [2], 65.3%; in experiment [3] it was 49.5%; in experiment [4] it was 9.2%; in experiment [5], 47.2%; in experiment [6], 4.5%.
For `COc1nccc(N2CCC(N(C)Cc3ccc(C)cc3)CC2)n1`, the inhibition of growth at 5 µM was found to be 58.8% in experiment [1]; 68.9% in experiment [2]; 61.5% in experiment [3]; 19.7% in experiment [4]; 30.1% in experiment [5]; 13.5% in experiment [6].
As to `CCOc1ncc(CN2CCC(N(C)Cc3ccccc3Cl)CC2)s1`, the inhibition of growth at 5 µM in experiment [6] worked out at 0.6%.
In the case of `Clc1ncc(CN2CCC(NCc3ccc(Cl)c(Cl)c3)CC2)s1`, in experiment [3], the inhibition of growth at 5 µM was 11%.
As to `CSc1ncc(CN2CCC(N(C)Cc3cccc(F)c3)CC2)s1`, the inhibition of growth at 5 µM in experiment [6] is 2.1%.
Take `CSc1ncc(CN2CCC(N(C)Cc3ccccc3C)CC2)s1`: the inhibition of growth at 5 µM in experiment [1] is 1.4%; in experiment [6], 6.9%.
As to `CN(Cc1cccc(F)c1)C1CCN(Cc2cnc(Cl)s2)CC1`, the inhibition of growth at 5 µM turned out to be 5.7% in experiment [1]; 4.4% in experiment [2]; 2.4% in experiment [3]; 4.2% in experiment [4]; 3.2% in experiment [5]; 1.3% in experiment [6].
As to `Clc1cccc(CNC2CCN(Cc3cnc(Cl)s3)CC2)c1`, the inhibition of growth at 5 µM was determined as 7.2% in experiment [1]; 2.4% in experiment [2]; 3.8% in experiment [3]; 3.2% in experiment [5]; 4.1% in experiment [6].
`CN(Cc1ccccc1C#N)C1CCN(Cc2cnc(Cl)s2)CC1`: the inhibition of growth at 5 µM in experiment [1] is 4%; in experiment [2] it was 8.2%; in experiment [3], -4.1%; in experiment [4] it was 7.3%; in experiment [5], -8.5%; in experiment [6], 4.2%.
As for `CCOc1ncc(CN2CCC(N(C)Cc3cccc(Cl)c3)CC2)s1`, the inhibition of growth at 5 µM in experiment [6] turned out to be 5.2%.
Regarding `CCOc1ncc(CN2CCC(N(C)Cc3ccc(F)cc3)CC2)s1`, the inhibition of growth at 5 µM in experiment [4] was 26%.
As for `CCOc1ncc(CN2CCC(N(C)Cc3ccc(C#N)cc3)CC2)s1`, the inhibition in experiment [7] turned out to be 5.49%. The inhibition of growth at 5 µM in experiment [6] is 6.7%.
In the case of `CSc1nccc(N2CCC(N(C)Cc3ccc(Cl)c(Cl)c3)CC2)n1`, the inhibition of growth at 5 µM in experiment [2] is 60%.
With `COc1cc(N2CCC(N(C)Cc3cc(Cl)ccc3Cl)CC2)ncn1`, the inhibition of growth at 5 µM in experiment [1] was found to be 5.6%; in experiment [2], 9.4%; in experiment [3], 5.4%; in experiment [4] it was 5.2%; in experiment [5], 8.4%; in experiment [6] it was 9.4%.
In the case of `CCOc1ncc(CN2CCC(N(C)Cc3c(Cl)cccc3Cl)CC2)s1`, in experiment [6], the inhibition of growth at 5 µM was determined as 5.1%.
In the case of `COc1nccc(N2CCC(N(C)Cc3ccc(C#N)cc3)CC2)n1`, the inhibition of growth at 5 µM in experiment [1] was determined as 58.1%; in experiment [2], 66.2%; in experiment [3], 60.4%; in experiment [4] it was 31.7%; in experiment [5], 27.7%; in experiment [6], 16.6%.
On to `Cc1ccc(CN(C)C2CCN(Cc3cnc(Cl)s3)CC2)cc1`, for which the inhibition of growth at 5 µM is 16% in experiment [1] and 8.4% in experiment [6].
In experiment [7], `COc1ccc(-c2nc(-c3cc(C(F)(F)F)cc(C(F)(F)F)c3)n(Cc3ccc(C(N)=O)cc3)c2-c2ccc(OC)cc2)cc1` returned an inhibition of 53.1%.
For the molecule `COc1cc(N2CCC(N(C)Cc3ccc(C)cc3)CC2)ncn1`, the values for the inhibition of growth at 5 µM in experiment [1], in experiment [3] and in experiment [6] were 8%, 5% and 22%, respectively.
As to `COc1nccc(N2CCC(N(C)Cc3cccc(F)c3)CC2)n1`, the inhibition of growth at 5 µM was found to be 9.9% in experiment [3], 9.2% in experiment [4], 8.5% in experiment [5] and 3.9% in experiment [6].
For `CN(Cc1c(Cl)cccc1Cl)C1CCN(Cc2cnc(Cl)s2)CC1`, the inhibition of growth at 5 µM worked out at 66.3% in experiment [1]; 72.4% in experiment [2]; 70% in experiment [3]; 37.8% in experiment [4]; 36.3% in experiment [5]; 4.5% in experiment [6].
Consider `COc1cc(N2CCC(N(C)Cc3ccc(C#N)cc3)CC2)ncn1`, for which the inhibition of growth at 5 µM in experiment [6] is 8.8%.
Turning to `CS(=O)(=O)CCNCc1ccc(-c2ccc3ncnc(Nc4ccc(OCc5cccc(F)c5)c(Cl)c4)c3c2)o1` [LAPATINIB], the inhibition of growth at 5 µM is 18% in experiment [1] and 79% in experiment [4].
For `COc1cc(N2CCC(N(C)Cc3ccc(F)cc3)CC2)ncn1`, the inhibition of growth at 5 µM in experiment [1] turned out to be 8.1%; in experiment [2], 5%; in experiment [3], 7.8%; in experiment [4], 7.6%; in experiment [5], 4.9%; in experiment [6], 5.7%.
Regarding `CSc1ncc(CN2CCC(N(C)Cc3ccc(Cl)c(Cl)c3)CC2)s1`, the inhibition in experiment [7] was found to be 10.7%.
In the case of `CCOc1ncc(CN2CCC(N(C)Cc3ccccc3C#N)CC2)s1`, the inhibition of growth at 5 µM in experiment [6] was determined as 7.2%.
As to `Fc1ccc(CNC2CCN(Cc3cnc(Cl)s3)CC2)cc1`, the inhibition of growth at 5 µM was 66.3% in experiment [1]; 72.4% in experiment [2]; 70% in experiment [3]; 37.8% in experiment [4]; 36.3% in experiment [5]; 40.4% in experiment [6].
For the molecule `COc1nccc(N2CCC(N(C)Cc3cc(Cl)ccc3Cl)CC2)n1`, the inhibition of growth at 5 µM was determined as 22.7% in experiment [1]; 50.6% in experiment [2]; 27.5% in experiment [3]; 24.7% in experiment [4]; 22% in experiment [5]; 11.7% in experiment [6].
As to `CN(Cc1cccc(Cl)c1)C1CCN(Cc2cnc(Cl)s2)CC1`, the inhibition of growth at 5 µM came out at 8.4% in experiment [1], 7.1% in experiment [3], 9.7% in experiment [5] and 8.5% in experiment [6].
Regarding `COc1cc(N2CCC(N(C)Cc3cccc(Cl)c3)CC2)ncn1`, the inhibition of growth at 5 µM in experiment [1] is 9.4%.
On to `CSc1nccc(N2CCC(N(C)Cc3cccc(F)c3)CC2)n1`, for which the inhibition of growth at 5 µM in experiment [1] was determined as 63.9%; in experiment [2] it was 66.2%; in experiment [3], 67.1%; in experiment [4], 32.6%; in experiment [5], 50.4%; in experiment [6], 35.2%.
Turning to `COc1cc(N2CCC(N(C)Cc3ccc(Cl)c(Cl)c3)CC2)ncn1`, the inhibition of growth at 5 µM came to 9.2% in experiment [1], 9.8% in experiment [3], 6.5% in experiment [5] and 28% in experiment [6].
Regarding `CN(Cc1ccc(Cl)c(Cl)c1)C1CCN(Cc2cnc(Cl)s2)CC1`, in experiment [6], the inhibition of growth at 5 µM was 5.3%.
In the case of `COc1nccc(N2CCC(N(C)Cc3ccccc3C#N)CC2)n1`, the inhibition of growth at 5 µM in experiment [1] was found to be 72.7%; in experiment [2], 79.5%; in experiment [3], 71.6%; in experiment [4] it was 86.5%; in experiment [5], 53.3%; in experiment [6], 74.3%.
